Assay results: publication PMC7466040, “Sevanol and Its Analogues: Chemical Synthesis, Biological Effects and Molecular Docking” (Pharmaceuticals, 2020)

Legend:
ASIC1a = biological target: T1, ASIC1a (Rattus norvegicus, UniProt P55926); experiment: Competition of sevanol with FRRFa peptide on ASIC1a current (integral currents); type: cell-based
T1 construct: expressed in transfected cells; host or cells: Xenopus laevis oocytes (cRNA injection)
T1 sequence (P55926 1-526): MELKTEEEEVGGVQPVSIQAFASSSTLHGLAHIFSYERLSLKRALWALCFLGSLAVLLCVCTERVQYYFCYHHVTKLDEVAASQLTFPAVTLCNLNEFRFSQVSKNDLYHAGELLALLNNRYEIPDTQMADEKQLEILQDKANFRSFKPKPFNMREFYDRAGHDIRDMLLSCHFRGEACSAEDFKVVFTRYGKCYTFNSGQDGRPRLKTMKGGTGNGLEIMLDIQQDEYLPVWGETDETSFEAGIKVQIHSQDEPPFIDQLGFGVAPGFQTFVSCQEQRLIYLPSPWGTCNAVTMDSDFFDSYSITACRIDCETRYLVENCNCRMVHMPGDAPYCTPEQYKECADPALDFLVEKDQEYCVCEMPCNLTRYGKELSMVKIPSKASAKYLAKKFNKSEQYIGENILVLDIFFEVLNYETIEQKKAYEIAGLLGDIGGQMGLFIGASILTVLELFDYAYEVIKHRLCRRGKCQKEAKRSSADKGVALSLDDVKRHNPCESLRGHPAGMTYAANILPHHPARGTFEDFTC
Text: It is known that RF-amide peptides produce a potentiating effect on ASIC1a by inhibiting the channel’s desensitization in the presence of protons (during acidic stimulation). […] Using molecular docking and site-directed mutagenesis, it has been shown that RF-amide peptides are most likely to bind to ASIC1a in the central vestibule of the chicken channel. […] The peptide worsened the effectiveness of the inhibitory action of sevanol on the channel by 1.5 times, and reduced the Hill coefficient (Figure 3). Thus, it can be assumed that the binding site of sevanol also lies in the region of the central vestibule.
Oocytes were harvested from female frogs anaesthetized with tricaine methane sulfonate (MS222) (0.17% solution), and the surgery was performed in an ice bath to avoid heavy bleeding. Defolliculated stage IV and V cells were injected with 2.5 and 10 ng cRNA, synthesized from PCi plasmids containing the rat ASIC1a and rat ASIC3 isoforms, respectively, using the Nanoliter 2000 microinjection system (World Precision Instruments, USA). The injected oocytes were kept for 2–3 days at 17 to 19 °C, and then for up to 5 days at 15 °C in a ND96 medium containing (in mM) 96 NaCl, 2 KCl, 1.8 CaCl2, 1 MgCl2, and 5 HEPES titrated to pH 7.4 with NaOH supplemented with gentamycin (50 μg/mL). Two-electrode voltage clamp recordings were performed at a holding potential of −50 mV using a GeneClamp 500 amplifier (Axon Instruments), and the data were filtered at 20 Hz and digitized at 100 Hz by an AD converter L780 (LCard, Russia). Microelectrodes were filled with 3 M KCl. The conditioning bath solution was ND96; the pH was adjusted to 7.4. The activating test solution was constructed based on the ND-96 buffer, in which 5 mM HEPES was replaced with 10 mM MES and pH was adjusted to 5.5. A computer-controlled valve system was used to achieve a rapid solution exchange in the recording chamber. A four parameter logistic equation was used for the curve-fitting analysis: F(x) = ((a1 − a2)/(1 + (x/x0)n)) + a2, where x is the concentration of the compound; F(x) is the response value at a given concentration of the compound; a1 is the control response value (fixed at 100%); x0 is the IC50 value; n is the Hill coefficient (slope factor); and a2 is the response value at the maximal inhibition (% of control).
Figure 3 Comparison of sevanol (s706) and the Phe-Arg-Arg-Phe-amide peptide (FRRFa) effects on the ASIC1a current. […] (B) Dose–response ASIC1a inhibitory curves for s706 alone (red line) and for s706 in the presence of 200 µM FRRFa (blue line), determined for integral currents. […]

ICR male mice [1] = experiment: Complete Freund's adjuvant-induced thermal hyperalgesia (hot plate); type: in vivo; conditions: hot plate 53 °C
Experimental: Specific pathogen-free outbred ICR male mice (6 to 8 weeks old, weighing 29 to 33 g) were obtained from the Animal Breeding Facility of the Branch of the Shemyakin-Ovchinnikov Institute of Bioorganic Chemistry of the Russian Academy of Sciences (Pushchino). The animals were acclimatized for 2 weeks before the experimental procedures, and were kept in two-corridor barrier rooms under a controlled environment: a temperature of 20 to 24 °C, a relative humidity of 30% to 60%, and a 12 h light cycle. The animals were housed in Type 3 standard polycarbonate cages (820 cm2) on bedding (LIGNOCEL BK 8/15, JRS, Germany), with ad libitum access to feed (SSNIFF V1534-300, Spezialdiaeten, GmbH) and filtered tap water. The mouse cages were also supplied with material for environmental enrichment, i.e., Mouse House (Techniplast, Italy). Sevanol or the vehicle was administered intravenously, intranasally and orally (30 min before testing).
The development of the inflammation and thermal hyperalgesia of the paw was induced by the injection of the oil/saline (1:1) CFA emulsion into the dorsal surface of the hind paw of the mice (20 μL/paw) 24 h before the measurement. Saline (20 μL) was injected into the control mice. The inflamed paw withdrawal latencies to thermal stimulation were measured on a hot plate device (Hot Plate Analgesia Meter, Columbus Instruments) with a set temperature of 53 ± 0.1 °C and a cut-off time of 60 s.
Figure 5 The analgesic and anti-inflammatory effects of sevanol following intravenous, intranasal and per os administration. The effect of sevanol on the acetic acid induced writhing (A–C) and on the mice withdrawal latency on a hot plate in the thermal hyperalgesia test after CFA injection (D–F) upon intravenous (A,D), intranasal (B,E) and oral (C,F) administration. […] The results are presented as the mean ± SD (n = 6–10). The p-values of the sevanol groups vs. the saline group are based on an analysis of variance and on Tukey’s test; * p < 0.05, ** p < 0.005, *** p < 0.001.

ICR male mice [2] = experiment: CFA-induced paw oedema; type: in vivo; conditions: p.o. only, not i.v. or i.n., 2, 4, 8 and 24 h
mice = system: mice; set-up: method as in PMID 30545037; conditions: parenteral, 0.01–10 mg/kg; cited from earlier work

worsening of effectiveness of inhibitory action on ASIC1a by FRRFa peptide (ASIC1a; 200 μM FRRFa vs alone): 1.5 times
IC50 (ASIC1a; integral currents, pH 5.5, 15 s pre-incubation, n = 5, read-out: IC50, ASIC1a inhibition, s706 alone): 254 ± 31.2 µM
nH, ASIC1a inhibition in the presence of FRRFa (ASIC1a; integral currents, pH 5.5, + 0.2 mM (200 µM) FRRFa, n = 5): 2.4 ± 0.3
nH, ASIC1a inhibition, s706 alone (ASIC1a; integral currents, pH 5.5, n = 5): 3.1 ± 0.4
SMILES: O=C(O)CC(C(=O)O)C(OC(=O)C1=Cc2cc(O)c(O)cc2C(c2ccc(O)c(O)c2)C1C(=O)OC(C(=O)O)C(CC(=O)O)C(=O)O)C(=O)O (stereo not drawn) [sevanol]
dose at which reversal of CFA-induced thermal hyperalgesia reached statistical significance, i.n. (ICR male mice [1]; intranasal): 1 mg/kg
dose at which reversal of CFA-induced thermal hyperalgesia reached statistical significance, i.v. (ICR male mice [1]; intravenous): 1 mg/kg
dose at which reversal of CFA-induced thermal hyperalgesia was statistically significant, p.o. (ICR male mice [1]; oral): 0.1 mg/kg
paw oedema reduction (ICR male mice [2]): significant reduction in paw oedema
effect on CFA-induced thermal hyperalgesia (mice): significantly reversed
